{"source": "patent US20070293486A1", "about": "“Alpha-Keto Carbonyl Calpain Inhibitors” (SANTHERA PHARMACEUTICALS (SCHWEIZ) AG, priority 2004, published 2007)", "key": {"human μ-calpain": {"target": "T1, human μ-calpain (Homo sapiens, UniProt P07384)", "T1 construct": "purchased Calbiochem", "T1 sequence (P07384 1-714)": "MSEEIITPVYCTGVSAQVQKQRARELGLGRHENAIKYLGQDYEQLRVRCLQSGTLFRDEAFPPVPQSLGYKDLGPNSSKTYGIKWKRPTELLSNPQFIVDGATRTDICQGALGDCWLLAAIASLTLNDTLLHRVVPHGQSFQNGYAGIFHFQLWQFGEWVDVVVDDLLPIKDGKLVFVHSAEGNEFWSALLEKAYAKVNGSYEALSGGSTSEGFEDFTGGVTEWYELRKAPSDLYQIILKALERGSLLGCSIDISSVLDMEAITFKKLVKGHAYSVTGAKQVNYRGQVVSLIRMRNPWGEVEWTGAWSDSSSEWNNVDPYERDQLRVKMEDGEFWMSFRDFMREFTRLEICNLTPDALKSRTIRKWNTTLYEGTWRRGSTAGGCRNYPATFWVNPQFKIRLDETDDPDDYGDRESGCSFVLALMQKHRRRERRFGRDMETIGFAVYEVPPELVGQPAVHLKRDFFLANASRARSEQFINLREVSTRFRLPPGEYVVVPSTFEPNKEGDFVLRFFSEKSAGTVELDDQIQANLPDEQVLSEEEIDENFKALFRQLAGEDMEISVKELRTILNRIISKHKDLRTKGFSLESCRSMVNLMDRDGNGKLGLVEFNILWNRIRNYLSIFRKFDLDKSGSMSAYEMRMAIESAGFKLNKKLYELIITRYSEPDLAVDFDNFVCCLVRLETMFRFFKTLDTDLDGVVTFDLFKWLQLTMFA", "T1 sequence (P04632 1-268 partner)": "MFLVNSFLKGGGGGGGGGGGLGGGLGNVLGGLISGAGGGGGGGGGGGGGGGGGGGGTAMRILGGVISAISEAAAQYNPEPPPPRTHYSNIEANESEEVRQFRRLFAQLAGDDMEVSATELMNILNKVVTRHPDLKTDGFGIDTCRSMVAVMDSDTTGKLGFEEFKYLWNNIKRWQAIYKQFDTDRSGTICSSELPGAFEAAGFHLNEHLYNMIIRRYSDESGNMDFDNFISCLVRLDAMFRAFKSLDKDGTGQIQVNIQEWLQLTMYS", "experiment": "Enzymatic Calpain Inhibition Assay", "type": "biochemical", "conditions": "enzymatic calpain I inhibition; read-out: Calp I IC50", "protocol": "The Ki value was also determined in some cases. These criteria were used to measure the inhibitory effect of the compounds (I) on calpain I, calpain II and cathepsin B.\nThe inhibitory properties of calpain inhibitors are tested in 100 μl of a buffer containing 100 mM imidazole pH 7.5, 5 mM L-Cystein-HCl, 5 mM CaCl2, 250 μM of the calpain fluorogenic substrate Suc-Leu-Tyr-AMC (Sigma) (Sasaki et al., J. Biol. Chem., 1984, 259, 12489-12949) dissolved in 2.5 μl DMSO and 0.5 μg of human μ-calpain (Calbiochem). The inhibitors dissolved in 1 μl DMSO are added to the reaction buffer. The fluorescence of the cleavage product 7-amino-4-methylcoumarin (AMC) is followed in a SPECTRAmax GEMINI XS (Molecular Device) fluorimeter at λex=360 nm and λem=440 nm at 30° C. during 30 min at intervals of 30 sec in 96-well plates (Greiner). The initial reaction velocity at different inhibitor concentrations is plotted against the inhibitor concentration and the IC50 values determined graphically."}, "[1]": {"tested_on": "cellular calpains in C2C12 myoblasts", "experiment": "Calpain Inhibition Assay in C2C12 Myoblasts", "type": "cell-based", "conditions": "read-out: Calp I IC50 Myoblast", "protocol": "This assay is aimed at monitoring the ability of the substance to inhibit cellular calpains. C2C12 myoblasts are grown in 96-well plates in growth medium (DMEM, 20% foetal calf serum) until they reach confluency. The growth medium is then replaced by fusion medium (DMEM, 5% horse serum). 24 hours later the fusion medium is replaced by fusion medium containing the test substances dissolved in 1 μl DMSO. After 2 hours of incubation at 37° C. the cells are loaded with the calpain fluorogenic substrate Suc-Leu-Tyr-AMC at 400 μM in 50 μl of a reaction buffer containing 135 mM NaCl; 5 mM KCl; 4 mM CaCl2; 1 mM MgCl2; 10 mM Glucose; 10 mM HEPES pH 7.25 for 20 min at room temperature. The calcium influx, necessary to activate the cellular calpains, is evoked by the addition of 50 μl reaction buffer containing 20 μM of the calcium ionophore Br-A-23187 (Molecular Probes). The fluorescence of the cleavage product AMC is measured as described above during 60 min at 37° C. at intervals of 1 min. The IC50 values are determined as described above. Comparison of the IC50 determined in the enzymatic calpain inhibition assay to the IC50 determined in the C2C12 myoblasts calpain inhibition assay, allows to evaluate the cellular uptake or the membrane permeability of the substance."}, "20S Proteasome": {"target": "T2, 20S Proteasome (Oryctolagus cuniculus, UniProt G1T4Q9)", "T2 sequence (G1T4Q9 1-263)": "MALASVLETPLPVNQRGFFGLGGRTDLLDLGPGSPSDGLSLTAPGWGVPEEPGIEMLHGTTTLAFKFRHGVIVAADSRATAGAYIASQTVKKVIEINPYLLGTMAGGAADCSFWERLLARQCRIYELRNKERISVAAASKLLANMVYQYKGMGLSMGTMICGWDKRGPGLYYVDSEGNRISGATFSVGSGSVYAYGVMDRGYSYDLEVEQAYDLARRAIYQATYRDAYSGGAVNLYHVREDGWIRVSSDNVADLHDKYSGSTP", "experiment": "20S Proteasome Assay", "type": "biochemical", "conditions": "Rabbit, read-out: 20S Prot IC50", "protocol": "25 μl of a reaction buffer containing 400 μM of the fluorogenic substrate Suc-Leu-Leu-Val-Tyr-AMC (Bachem) are dispensed per well of a white microtiter plate. Test compounds dissolved in 0.5 μl DMSO are added. To start the reaction; 25 μl of reaction buffer containing 35 ng of enzyme (20S Proteasome, Rabbit, Calbiochem) are added. The increase in fluorescence (excitation at 360 nm; emission at 440 nm) is measured over 30 min at 30° C. at 30″. The IC50's are then determined from the slopes."}, "[2]": {"tested_on": "utrophin protein levels in human DMD myotubes", "experiment": "Utrophin Expression Assay in Human Myotubes", "type": "cell-based", "conditions": "50 nM test compound", "protocol": "Utrophin induction was determined by a method which was similar to a method of 1. Courdier-Fruh et al., Neuromuscular Disord., 2002, 12, S95-S104. Primary human muscle cell cultures were prepared from muscle biopsies taken during orthopedic surgery from Duchenne patients (provided by the Association Francaise contre les Myopathies). Cultures were prepared and maintained according to standard protocols. Induction of utrophin expression in human DMD myotubes was assayed at 50 nM or 500 nM of test compound added in differentiation medium. Normalized utrophin protein levels are determined after 56 d of incubation by cell-based ELISA with a mouse monoclonal antibody to the aminoterminal portion of utrophin (NCL-DRP2, Novocastra Laboratories). For calibration, the cell density and differentiation was determined by absorbance measurements of the total dehydrogenase enzyme activity in each well using the calorimetric CellTiter 96®AQ One Solution Reagent Proliferation Assay (Promega) according to the manufacturer's recommendation. Subsequently, cells were fixed, washed, permeabilized with 0.5% (v/v) Triton X-100 and unspecific antibody binding-sites blocked by standard procedures. Utrophin protein levels were determined immunologically with utrophin-specific primary antibody and with an appropriate peroxidase-coupled secondary antibody (Jackson ImmunoResearch Laboratories) using QuantaBlu™ Fluorogenic Peroxidase Substrate Kit (Pierce) for detection. Fluorescence measurements were carried out with a multilabel counter (Wallac) at λex=355 nm and at λem=460 nm. The primary readout of this signal is presented in arbitrary units. For calibration, the arbitrary units representing the relative utrophin protein content of each well was divided by the corresponding cell-titer absorbance value to correct for cell density. For comparison between experiments, the cell-titer corrected readout for utrophin protein content in each well was expressed in percent of solvent treated control cultures (set to 100%), i.e. data are % utrophin protein levels compared to DMSO solvent (N=4)."}, "[3]": {"tested_on": "experimental muscular dystrophy in hamster", "conditions": "Journal of Pharmacobiodynamics, 1987, 10, 678; cited from earlier work"}}, "data": [{"compound": "CCNC(=O)C(=O)[C@H](Cc1ccc(Cl)cc1)NC(=O)[C@@H](NC(=O)[C@H](Cc1ccccc1)NC(=O)CCCCC1CCSS1)C(C)C", "note": "(stereo partly shown) [Example 1]", "values": [{"measurement": "IC50", "setting": "human μ-calpain", "result": 45, "unit": "nM"}, {"measurement": "IC50", "setting": "[1]", "result": 200, "unit": "nM"}]}, {"compound": "CCNC(=O)C(=O)C(Cc1ccc(OC)cc1)NC(=O)C(NC(=O)C(Cc1csc2ccccc12)NC(=O)CCCCC1CCS[S+]1[O-])C(C)C", "note": "(stereo not shown) [Example 606]", "values": [{"measurement": "IC50", "setting": "human μ-calpain", "result": 16, "unit": "nM"}, {"measurement": "IC50", "setting": "[1]", "result": 28, "unit": "nM"}, {"measurement": "IC50", "setting": "20S Proteasome", "result": 10, "unit": "nM"}, {"measurement": "UTR Induction @50 nM", "setting": "[2]", "result": 151, "unit": "%"}, {"measurement": "melting point", "result": "190 to 192", "unit": "°C"}]}, {"compound": "CCNC(=O)C(=O)C(Cc1ccccc1)NC(=O)C(NC(=O)C(Cc1cccc2ccccc12)NC(=O)CCCCC1CCSS1)C(C)C", "note": "(stereo not shown) [Example 735]", "values": [{"measurement": "IC50", "setting": "human μ-calpain", "result": 35, "unit": "nM"}, {"measurement": "IC50", "setting": "[1]", "result": 20, "unit": "nM"}, {"measurement": "IC50", "setting": "20S Proteasome", "result": 27, "unit": "nM"}, {"measurement": "UTR Induction @50 nM", "setting": "[2]", "result": 134, "unit": "%"}, {"measurement": "melting point", "result": 220, "unit": "°C"}]}, {"compound": "CCOC(=O)[C@H]1O[C@@H]1C(=O)N[C@@H](CC(C)C)C(=O)NCCC(C)C", "note": "[Example E-64-d]", "values": [{"measurement": "life-prolonging effect in experimental muscular dystrophy", "setting": "[3]", "result": "life-prolonging effect"}]}]}
